From the NIST ThermoML archive (doi:10.1016/j.jct.2016.10.031)
Numbers after ± are expanded uncertainties.

Settings: for molar entropy: 101.33 kPa, Small (less than 1 g) adiabatic calorimetry

CC(C)(C)c1ccc(Oc2ccc([N+](=O)[O-])cc2)cc1 [1-(tert-butyl)-4-(4-nitrophenoxy)benzene]
Settings	Glass transition temperature [°C]	Triple point temperature [K]	molar entropy [J/K/mol]
5 K, Crystal	–	–	0.4639 ± 0.083
10 K, Crystal	–	–	3.11 ± 0.51
15 K, Crystal	–	–	7.882 ± 0.76
20 K, Crystal	–	–	14.05 ± 1.5
25 K, Crystal	–	–	21.04 ± 0.83
30 K, Crystal	–	–	28.52 ± 1
35 K, Crystal	–	–	36.25 ± 1.2
40 K, Crystal	–	–	44.07 ± 1.7
45 K, Crystal	–	–	51.97 ± 1.6
50 K, Crystal	–	–	59.86 ± 1.8
60 K, Crystal	–	–	75.08 ± 2.3
70 K, Crystal	–	–	89.8 ± 2.8
80 K, Crystal	–	–	104.1 ± 3.3
90 K, Crystal	–	–	117.98 ± 1.9
100 K, Crystal	–	–	131.7 ± 2.2
110 K, Crystal	–	–	145.09 ± 2.4
120 K, Crystal	–	–	158.31 ± 2.4
130 K, Crystal	–	–	171.36 ± 2.7
140 K, Crystal	–	–	184.17 ± 2.9
150 K, Crystal	–	–	196.89 ± 3.2
160 K, Crystal	–	–	209.52 ± 3.4
170 K, Crystal	–	–	222 ± 3.4
180 K, Crystal	–	–	234.38 ± 3.7
190 K, Crystal	–	–	246.69 ± 3.9
200 K, Crystal	–	–	259 ± 4
210 K, Crystal	–	–	271.13 ± 4.2
220 K, Crystal	–	–	283.27 ± 4.5
230 K, Crystal	–	–	295.33 ± 4.7
240 K, Crystal	–	–	307.47 ± 5
250 K, Crystal	–	–	319.44 ± 5
260 K, Crystal	–	–	331.5 ± 5.2
270 K, Crystal	–	–	343.55 ± 5.2
280 K, Crystal	–	–	355.53 ± 5.5
290 K, Crystal	–	–	367.58 ± 5.7
298.15 K, Crystal	–	–	377.39 ± 5.8
300 K, Crystal	–	–	379.64 ± 6
310 K, Crystal	–	–	391.78 ± 6.2
320 K, Crystal	–	–	403.92 ± 6.3
330 K, Crystal	–	–	416.14 ± 6.6
334.8 K, Crystal	–	–	422.04 ± 6.6
334.8 K, Liquid	–	–	482.07 ± 7.3
340 K, Liquid	–	–	488.97 ± 7.6
350 K, Liquid	–	–	502.03 ± 7.8
360 K, Liquid	–	–	514.91 ± 8.1
370 K, Liquid	–	–	527.55 ± 8.3
Crystal, Adiabatic calorimetry	–	334.8 ± 0.08	–
Glass, Adiabatic calorimetry	-39.3 ± 0.2	–	–
